Values of other authors in patent publication US10494420B2, “Mast cell stabilizers for treatment of hypercytokinemia and viral infection” (priority 2016, dated 2019).

Tests used:
H5N1 Influenza Virus = conditions: mouse, in vivo
[1] = intranasal delivery versus any other route, rabbits

For `CN1CCC(=C2c3ccccc3CC(=O)c3sccc32)CC1` [ketotifen], the impact on survival (H5N1 Influenza Virus) is given as “increased when the compounds were combined”, the survival of mice (H5N1 Influenza Virus) is given as “increase survival of mice” and the “mast cell degranulation and release of mediators (histamine, TNF-α, prostaglandins, leukotrienes, interleukins)” value (mast cells) is given as “inhibit mast cell degranulation”. The bioavailability [1] was “more bioavailable using intranasal delivery”.
